In US7691864B2, “Anti-hypertensive composition and methods of treatment” (University of Florida, priority 1994, dated 2010):

Test system: Male Sprague Dawley rats
Test: Blood pressure and heart rate in carotid-catheterized rats after I.P. dosing
Format: in vivo, rat
Method: Male Sprague Dawley rats averaging 400 g were anesthetized with sodium pentobarbital, 50 mg/kg I.P. The animals' neck and shoulder areas were shaved and prepped for surgery. The carotid artery was isolated and clamped using an arterial hemostat. A nick was made in the artery and a segment of PE-50 intramedic tubing was inserted, directed towards the heart and tied into place. The tubing was then flushed with heparin (100 μ/ml) and skin tunneled to the shoulder area. A stylet was inserted into the tip of the catheter to prevent blood leakage. The external incisions were closed with 11 mm staples.
The animals were fasted and allowed to recover overnight. The following morning, the stylet was removed and the tubing flushed with the heparin solution. The rats were placed into individual cages and hooked up to a transducer/oscillograph. The animals were allowed to stabilize in the cages for one-half hour before any recordings began. The oscillograph was then turned on and baseline recordings of the heart rate and blood pressure were made. The rats were given diethylhomospermine in sterile normal saline at a dose of 121.9 or 10 mg/kg I.P. The animals' heart rate and blood pressure were evaluated at t=0, 0.5 (or 1), 3, 5, 10, 15 and 20 minutes post-drug.

[1] = 10 mg/kg I.P., 10 min post-drug
[2] = 10 mg/kg I.P., 15 min post-drug
[3] = 10 mg/kg I.P., 20 min post-drug
[4] = 10 mg/kg I.P., time 0 min (baseline)
[5] = 121.9 mg/kg I.P., 0.5 min post-drug
[6] = 121.9 mg/kg I.P., 3 min post-drug
[7] = 121.9 mg/kg I.P., 5 min post-drug
[8] = 121.9 mg/kg I.P., 10 min post-drug
[9] = 121.9 mg/kg I.P., 15 min post-drug
[10] = 121.9 mg/kg I.P., 20 min post-drug
[11] = 121.9 mg/kg I.P., time 0 min (baseline)

CCNCCCCNCCCCNCCCCNCC [diethylhomospermine]
Blood Pressure (10 mg/kg I.P., 1 min post-drug): 105/95
Heart Rate (10 mg/kg I.P., 1 min post-drug): 426 b.p.m.
Blood Pressure (10 mg/kg I.P., 3 min post-drug): 110/99
Heart Rate (10 mg/kg I.P., 3 min post-drug): 426 b.p.m.
Blood Pressure (10 mg/kg I.P., 5 min post-drug): 110/98
Heart Rate (10 mg/kg I.P., 5 min post-drug): 426 b.p.m.
Blood Pressure [1]: 105/97
Heart Rate [1]: 402 b.p.m.
Blood Pressure [2]: 105/97
Heart Rate [2]: 390 b.p.m.
Blood Pressure [3]: 107/100
Heart Rate [3]: 402 b.p.m.
Blood Pressure [4]: 135/120
Heart Rate [4]: 414 b.p.m.
Blood Pressure [5]: 75/68
Heart Rate [5]: 468 b.p.m.
Blood Pressure [6]: 52/44
Heart Rate [6]: 402 b.p.m.
Blood Pressure [7]: 51/42
Heart Rate [7]: 354 b.p.m.
Blood Pressure [8]: 42/40
Heart Rate [8]: 336 b.p.m.
Blood Pressure [9]: 39/34
Heart Rate [9]: 354 b.p.m.
Blood Pressure [10]: 30/28
Heart Rate [10]: 348 b.p.m.
Blood Pressure [11]: 130/120
Heart Rate [11]: 432 b.p.m.
